Measured values from patent US20260165956A1, “IN VIVO TARGETING OF THERAPEUTIC MOLECULES TO THE RETINA VIA THE OPTICAL SYSTEM OF THE EYE” (SEMMELWEIS EGYETEM, priority 2022, published 2026).
Where “and” joins values, the source holds several entries; their conditions need not be identical. Identical values can stand only once. Entries after “also recorded” stand apart in the source; their conditions may differ. Like-named read-outs stand apart in the source and are kept apart here. Blank lines part the entries; values can stand above or below the molecule they belong to.

Columns and labels:
[1] = test system: human retinal microvascular endothelial cells (HRMEC); test: tubulogenesis (in vitro angiogenesis) assay, number of meshes; assay type: cell-based; conditions: for IC50 / Dark/Light: HRMEC tubulogenesis; for Dark/Light: ratio of IC50 dark to IC50 light
Excerpt: These cells preserve their endothelial nature, and when cultured on an appropriate extracellular matrix, they spontaneously form a network that corresponds to a network of capillaries. Images of such networks taken with a microscope can be quantified, and several parameters (such as the number of segments, number of closed loops, number of junction points) of the network can be quantified and used as a parameter describing the angiogenesis in vitro [Staton et al., 2009].
The inventors have applied their proprietary azidated inhibitors described in the present patent in an ascending series of concentrations. For all the said azidated inhibitors, the in vitro angiogenesis experiments were carried out both in complete darkness and in defined illumination conditions. The number of closed loops (number of meshes) was identified using an image recognition algorithm, and an IC50 curve was fitted onto the number of meshes plotted against substance concentration. […] These experiments thus provided further proof, that light increases the inhibitory potential of the novel azidated compounds described in the present patent.
In vitro angiogenesis (hereinafter referred to as “tubulogenesis”) mimicks several features of angiogenetic processes observed in vivo in vertebrate animals [Staton et al., 2009] and is based on the VEGF-dependent self-organizing capacity of endothelial cells via which tube-like structures emerge that share many properties with in vivo observed blood vessels. Therefore, the inhibitory potential of the newly synthetized molecules of the present invention was also assessed in tubulogenesis assay using human retinal microvascular endothelial cells (HRMEC) derived from post mortem human donors. When seeded onto a collagen and laminin containing matrix, HRMEC spontaneously form a two-dimensional blood-vessel-like network displaying several quantifiable features that can be used to measure angiogenic potential [Staton et al., 2009]. The newly synthetized, PMO-containing VEGFR inhibitors were added to the culture medium in increasing concentrations to test whether they can inhibit the spontaneous formation of the network from HRMEC. The increasing concentrations allowed the inventors to calculate the IC50 values for each inhibitor molecule. The results of these experiments (table 2.) have shown that the new, PMO-containing azidated inhibitors were capable of inhibiting the tubulogenesis. Furthermore, in the presence of light, the inhibition was stronger than in the dark, providing evidence for the photoactivation and the concomitant covalent binding of the azidated inhibitors to their target receptors.
To test the inhibitory effect of the compounds with light and without light on tubulogenesis [Staton et al., 2009], we have used human retinal microvascular endothelial cells (HRMEC) from Cell Systems (Kirkland, WA 98033, cat. N^o: ACBRI 181). VEGF165 (Invitrogen) was only used as a positive control in these experiments, otherwise tubulogenesis relied on endogenous VEGF produced by the culture.
Assays were performed in a 96-well cell culture plate (Biologix). The basement membrane matrix Geltrex (Invitrogen) was thawed on ice overnight before use. 50 μl Geltrex was added to each well with a chilled pipette, then the plate was centrifuged at 2000 rpm for 10 min at 4° C. Subsequently the matrix was let solidify in a humidified incubator at 37° C. for at least 30 minutes. Before seeding, HRMEC cells were treated with compounds (0.1 nM-10 μM) in EBM-2 medium (Lonza) in the dark. After 5 minutes, 100 μl of suspension of treated cells was seeded into each Geltrex-coated well of the plate at a density of 10^3 cells/well and then exposed to light treatment (cold white LED light) for 10 min at 37° C. and 5% CO2 or kept in the dark (control plate) in the incubator during light treatment. Subsequently both the irradiated and the control plates were left in the incubator for 12 hours so that the tubulogenesis can proceed. […]

VEGFR2 = target: T1, VEGFR2 (Homo sapiens, UniProt P35968); test: VEGFR2/NFAT Reporter HEK293 luciferase assay of VEGF signaling; assay type: cell-based; conditions: VEGFR2-HEK cells; for IC50: 20 ng/ml VEGF165; for Dark/Light: ratio of IC50 dark to IC50 light
T1 construct: host or cells: HEK293 (VEGFR2/NFAT Reporter recombinant cell line)
Procedure: We have cultured the cells and conducted the measurements according to the manufacturer's instructions.
On the day preceding the measurement, 40 000 recombinant HEK cells were seeded into each well of a 96 well plate in a way that the experiments could be conducted in triplicates. […] For the conditions requiring irradiation, the plate was placed under a cold white LED light source within the incubator (37° C., 5% CO2) for the first 10 minutes of the 1-hour-long incubation with the inhibitors to imitate day-light, while the other plate was kept in the dark (also at 37° C., 5% CO2). Following the pre-incubation with inhibitors we treated the cells for 4 hours with VEGF without removing the inhibitors. For this purpose we used 20 ng/ml of commercially available human VEGF165 (Sf9 derived, from BPS BioScience Inc., Cat. No.: 91001-1) added directly into the cell-culture medium.
The IC50 values were calculated using the GraphPad Prism software.

neovascular AMD [2] = conditions: oral, phase I, patients; cited from earlier work
neovascular AMD [3] = conditions: oral, phase II, trial prematurely stopped; cited from earlier work
[4] = cold white LED light for the first 10 min of 1 h pre-incubation, read-out: IC50 Light
[5] = kept in the dark, read-out: IC50 Dark
[6] = Homo sapiens, HRMEC, 10 min, cold white LED light 10 min, no Ko-143, read-out: IC50 Light
[7] = Homo sapiens, HRMEC, dark, no Ko-143, read-out: IC50 Dark

T1 sequence (P35968 20-1356): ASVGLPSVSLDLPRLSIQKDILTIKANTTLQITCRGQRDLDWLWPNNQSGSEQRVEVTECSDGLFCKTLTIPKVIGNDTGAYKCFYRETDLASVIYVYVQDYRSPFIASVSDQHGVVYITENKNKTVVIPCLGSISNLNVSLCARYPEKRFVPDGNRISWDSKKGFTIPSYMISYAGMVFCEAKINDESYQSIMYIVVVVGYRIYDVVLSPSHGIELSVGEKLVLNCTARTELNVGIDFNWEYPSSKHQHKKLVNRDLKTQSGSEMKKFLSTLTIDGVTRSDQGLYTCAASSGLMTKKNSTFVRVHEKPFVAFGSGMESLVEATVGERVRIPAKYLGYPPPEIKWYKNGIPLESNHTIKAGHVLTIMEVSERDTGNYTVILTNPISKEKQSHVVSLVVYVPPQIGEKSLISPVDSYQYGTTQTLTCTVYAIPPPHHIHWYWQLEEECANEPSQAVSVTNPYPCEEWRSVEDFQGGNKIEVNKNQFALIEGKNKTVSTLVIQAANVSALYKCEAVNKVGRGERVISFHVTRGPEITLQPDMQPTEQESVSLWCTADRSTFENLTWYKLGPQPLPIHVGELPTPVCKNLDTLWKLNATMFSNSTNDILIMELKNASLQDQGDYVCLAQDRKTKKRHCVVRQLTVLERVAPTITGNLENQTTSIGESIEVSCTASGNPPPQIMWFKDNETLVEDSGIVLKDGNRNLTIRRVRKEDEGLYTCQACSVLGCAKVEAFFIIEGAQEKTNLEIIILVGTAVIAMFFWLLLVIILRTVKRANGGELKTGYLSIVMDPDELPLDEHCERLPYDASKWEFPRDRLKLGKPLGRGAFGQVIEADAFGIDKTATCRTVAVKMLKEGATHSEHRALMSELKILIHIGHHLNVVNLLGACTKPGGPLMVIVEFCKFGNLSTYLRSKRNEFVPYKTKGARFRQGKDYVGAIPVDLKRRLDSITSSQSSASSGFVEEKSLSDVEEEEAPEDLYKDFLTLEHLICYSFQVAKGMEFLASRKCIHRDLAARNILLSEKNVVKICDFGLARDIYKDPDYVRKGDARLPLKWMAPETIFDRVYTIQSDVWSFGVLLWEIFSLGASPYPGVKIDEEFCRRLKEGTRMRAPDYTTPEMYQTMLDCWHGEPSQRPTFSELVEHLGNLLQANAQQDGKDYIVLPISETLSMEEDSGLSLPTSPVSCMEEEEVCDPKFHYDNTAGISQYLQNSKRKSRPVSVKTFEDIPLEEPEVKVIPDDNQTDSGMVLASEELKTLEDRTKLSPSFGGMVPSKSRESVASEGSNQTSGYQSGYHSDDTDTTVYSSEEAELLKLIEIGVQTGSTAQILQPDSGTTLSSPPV

IC50 [1, 6]: 168 nM
IC50 [1, 7]: 655 nM
IC50 (VEGFR2; [4]): 2.23 nM
IC50 (VEGFR2; [5]): 40.4 nM
Dark/Light (VEGFR2): 18.12
SMILES: CCN(CC)CCNC(=O)c1c(C)[nH]c(/C=C2\C(=O)Nc3cc(Cl)c(N=[N+]=[N-])cc32)c1C [5-defluoro-5-azido-6-chloro-sunitinib]
Dark/Light ([1]; no Ko-143): 3.48

IC50 [1, 6]: 87 nM
IC50 [1, 7]: 228 nM
IC50 (VEGFR2; [4]): 11.7 nM
IC50 (VEGFR2; [5]): 53.2 nM
Dark/Light (VEGFR2): 4.57
SMILES: CCN(CC)CCNC(=O)c1c(C)[nH]c(/C=C2\C(=O)Nc3cc(N=[N+]=[N-])c(F)cc32)c1C [6-azido-sunitinib (3), 6-azido-sunitinib]
Dark/Light ([1]; no Ko-143): 2.62

IC50 (VEGFR2; [4]): 3.5 nM
IC50 (VEGFR2; [5]): 60.4 nM and 60.7 nM
Dark/Light (VEGFR2): 17.25
SMILES: CCN(CC)CCNC(=O)c1c(C)[nH]c(/C=C2\C(=O)Nc3cc(Br)c(N=[N+]=[N-])cc32)c1C [5-defluoro-5-azido-6-bromo-sunitinib (6), 5-defluoro-5-azido-6-bromo-sunitinib]

IC50 (VEGFR2; [4]): 8.86 nM
IC50 (VEGFR2; [5]): 69 nM
Dark/Light (VEGFR2): 7.79
SMILES: CCN(CC)CCNC(=O)c1c(C)[nH]c(/C=C2\C(=O)Nc3cc(F)c(N=[N+]=[N-])cc32)c1C [5-defluoro-5-azido-6-fluoro-sunitinib]

The remaining lines, values behind:

SMILES: Cc1[nH]c(/C=C2\C(=O)Nc3cc(Cl)c(N=[N+]=[N-])cc32)c(C)c1C(=O)N[C@H]1CCN(C(=O)N(C)C)C1 [5-defluoro-5-azido-6-chloro-vorolanib]
IC50 ([1]; cold white LED light 10 min, 500 nM of Ko-143 in the medium, read-out: IC50 Light): 173 nM
IC50 ([1]; Homo sapiens, HRMEC, 10 min, cold white LED light 10 min, 500 nM of Ko-143 in the medium, read-out: IC50 Light): 135 nM
Dark/Light ([1]; 500 nM of Ko-143): 3.97
IC50 (VEGFR2; [4]): 0.921 nM
IC50 (VEGFR2; [5]): 57.8 nM
Dark/Light (VEGFR2): 62.80

SMILES: COc1ccc2c3c([nH]c2c1)[C@H](CC(C)C)N1C(=O)[C@H](CCC(=O)OC(C)(C)C)NC(=O)[C@@H]1C3 [Ko-143, reference compound]
effect on tubulogenesis ([1]; result in words): no effect

SMILES: CCN(CC)CCNC(=O)c1c(C)[nH]c(/C=C2\C(=O)Nc3ccc(N=[N+]=[N-])cc32)c1C [5-defluoro-5-azido-sunitinib (1), 5-defluoro-5-azido-sunitinib]
IC50 [1, 6]: 951 nM
IC50 [1, 7]: 3540 nM
Dark/Light ([1]; no Ko-143): 3.72
IC50 (VEGFR2; [4]): 36.8 nM
IC50 (VEGFR2; [5]): 263 nM
Dark/Light (VEGFR2): 7.136

SMILES: Cc1[nH]c(/C=C2\C(=O)Nc3ccc(F)cc32)c(C)c1C(=O)N[C@H]1CCN(C(=O)N(C)C)C1 [vorolanib]
efficacy against neovascular AMD (neovascular AMD [2]): effective
adverse effects (neovascular AMD [3]): hepatobiliary and gastrointestinal adverse effects; also recorded: intolerable levels of side effects

SMILES: CCN(CC)CCNC(=O)c1c(C)[nH]c(/C=C2\C(=O)Nc3cc(N=[N+]=[N-])ccc32)c1C [5-defluoro-6-azido-sunitinib (2), 5-defluoro-6-azido-sunitinib]
IC50 [1, 6]: 432 nM
IC50 [1, 7]: 1090 nM
Dark/Light ([1]; no Ko-143): 2.52
IC50 (VEGFR2; [4]): 9.3 nM
IC50 (VEGFR2; [5]): 93.7 nM
Dark/Light (VEGFR2): 10.074

SMILES: Cc1[nH]c(/C=C2\C(=O)Nc3cc(N=[N+]=[N-])ccc32)c(C)c1C(=O)N[C@H]1CCN(C(=O)N(C)C)C1 [5-defluoro-6-azido-vorolanib (7), 5-defluoro-6-azido-vorolanib]
IC50 (VEGFR2; [4]): 10.1 nM
IC50 (VEGFR2; [5]): 53.4 nM
Dark/Light (VEGFR2): 5.29
